Among the data in ChEMBL document CHEMBL5463729, “Data for DCP probe BAY 1753011” (2023) are inhibition values, retold here.

For one assay, the target named is Vasopressin V2 receptor (Homo sapiens, UniProt P30518). The experiment in a line: Inhibition of Vasopressin V2 at 10 µM in the Eurofins-Panlabs radioligand binding assay (Eurofins_assay_287610). Further details: ligand concentration 4 nM. The settings on record: Compound concentration 10.0 uM.
Assay [1] deals with 5'-AMP-activated protein kinase catalytic subunit alpha-2 (Homo sapiens) (UniProt P54646). The experiment in a line: Inhibition of AMPKalpha2(h) at 10.0 µM in the Eurofins Kinase panel. The settings on record: Compound concentration 10.0 uM.
Assay [2] addresses Transient receptor potential cation channel subfamily M member 7 (Homo sapiens) (UniProt Q96QT4). The experiment in a line: Inhibition of ChaK1(h) at 10.0 µM in the Eurofins Kinase panel. The settings on record: Compound concentration 10.0 uM.
Assay [3] has as its target Serine/threonine-protein kinase ICK (Homo sapiens) (UniProt Q9UPZ9). The experiment in a line: Inhibition of ICK(h) at 10.0 µM in the Eurofins Kinase panel. The settings on record: Compound concentration 10.0 uM.
Assay [4] concerns the target Inhibitor of nuclear factor kappa-B kinase subunit alpha (Homo sapiens) (UniProt O15111). Put plainly: Inhibition of IKKalpha(h) at 10.0 µM in the Eurofins Kinase panel. The settings on record: Compound concentration 10.0 uM.
In assay [5] the target is Hepatocyte growth factor receptor (Homo sapiens) (UniProt P08581). The experiment in a line: Inhibition of Met(h) at 10.0 µM in the Eurofins Kinase panel. The settings on record: Compound concentration 10.0 uM.
Assay [6] deals with RAC-beta serine/threonine-protein kinase (Homo sapiens) (UniProt P31751). Put plainly: Inhibition of PKBbeta(h) at 10.0 µM in the Eurofins Kinase panel. The settings on record: Compound concentration 10.0 uM.
Assay [7] addresses Equilibrative nucleoside transporter 1/2/3/4 (Homo sapiens) (UniProt Q99808+Q7RTT9+Q14542+Q9BZD2). The settings on record: Compound concentration 10.0 uM.
Assay [8] addresses B1 bradykinin receptor (Homo sapiens) (UniProt P46663). The experiment in a line: Inhibition of Bradykinin B1 at 10 µM in the Eurofins-Panlabs radioligand binding assay (Eurofins_assay_212510). The settings on record: Compound concentration 10.0 uM.
In assay [9] the target is Voltage-dependent N-type calcium channel subunit alpha-1B (Homo sapiens) (UniProt Q00975). Put plainly: Inhibition of Calcium Channel N-Type at 10 µM in the Eurofins-Panlabs radioligand binding assay (Eurofins_assay_216000). The settings on record: Rattus norvegicus; Compound concentration 10.0 uM.
The species entered for the next assay is Rattus norvegicus. The experiment in a line: Inhibition of Imidazoline I2, Central at 10 µM in the Eurofins-Panlabs radioligand binding assay (Eurofins_assay_241000). Further details: ligand concentration 2 nM. The settings on record: Compound concentration 10.0 uM.
In assay [10] the target is Melatonin receptor type 1A (Homo sapiens) (UniProt P48039). Put plainly: Inhibition of Melatonin MT1 at 10 µM in the Eurofins-Panlabs radioligand binding assay (Eurofins_assay_251600). Further details: ligand concentration 0.05 nM. The settings on record: Compound concentration 10.0 uM.
The target of assay [11] is Interstitial collagenase (Homo sapiens) (UniProt P03956). The experiment in a line: Inhibition of Peptidase, Matrix Metalloproteinase-1 (MMP-1) at 10 µM in the Eurofins-Panlabs enzyme assay (Eurofins_assay_114110). The settings on record: Compound concentration 10.0 uM.
Assay [12] deals with Matrix metalloproteinase-9 (Homo sapiens) (UniProt P14780). The experiment in a line: Inhibition of Peptidase, Matrix Metalloproteinase-9 (MMP-9) at 10 µM in the Eurofins-Panlabs enzyme assay (Eurofins_assay_114910). Further details: substrate with concentration. The settings on record: Compound concentration 10.0 uM.
Assay [13] concerns the target Thromboxane-A synthase (Homo sapiens) (UniProt P24557). Put plainly: Inhibition of Thromboxane Synthase at compound concentration of 10.0 uM in the Eurofins-Panlabs enzyme assay (Eurofins_assay_194020). On the set-up: substrate with concentration. The settings on record: Compound concentration 10.0 uM.
Assay [14] deals with Cholecystokinin receptor type A (Homo sapiens) (UniProt P32238). The experiment in a line: Inhibition of Cholecystokinin CCK1 (CCKA) at 10 µM in the Eurofins-Panlabs radioligand binding assay (Eurofins_assay_218020). The settings on record: Compound concentration 10.0 uM.
The target in assay [15] is Melanocortin receptor 4 (Homo sapiens) (UniProt P32245). The experiment in a line: Inhibition of Melanocortin MC4 at 10 µM in the Eurofins-Panlabs radioligand binding assay (Eurofins_assay_251350). Further details: ligand concentration 0.02 nM. The settings on record: Compound concentration 10.0 uM.
The target in assay [16] is Melanocortin receptor 5 (Homo sapiens) (UniProt P33032). Put plainly: Inhibition of Melanocortin MC5 at 10 µM in the Eurofins-Panlabs radioligand binding assay (Eurofins_assay_251400). On the set-up: ligand concentration 0.035 nM. The settings on record: Compound concentration 10.0 uM.
For assay [17], the target named is T1, Muscarinic acetylcholine receptor M5 (Homo sapiens) (UniProt P08912).
T1 sequence (whole entry): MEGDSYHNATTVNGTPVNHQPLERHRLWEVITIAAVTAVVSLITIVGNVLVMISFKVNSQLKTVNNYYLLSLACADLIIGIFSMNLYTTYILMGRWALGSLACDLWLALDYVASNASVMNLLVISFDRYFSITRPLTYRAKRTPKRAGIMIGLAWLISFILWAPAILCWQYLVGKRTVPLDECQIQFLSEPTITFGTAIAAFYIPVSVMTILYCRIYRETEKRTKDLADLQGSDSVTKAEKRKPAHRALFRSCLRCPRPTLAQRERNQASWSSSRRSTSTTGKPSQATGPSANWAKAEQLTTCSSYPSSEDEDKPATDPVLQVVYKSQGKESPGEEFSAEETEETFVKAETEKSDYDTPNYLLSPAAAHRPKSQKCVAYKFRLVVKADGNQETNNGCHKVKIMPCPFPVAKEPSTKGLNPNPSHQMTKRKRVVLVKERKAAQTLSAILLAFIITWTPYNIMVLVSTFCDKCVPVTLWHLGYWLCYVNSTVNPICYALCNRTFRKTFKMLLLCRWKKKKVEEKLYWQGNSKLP
The experiment in a line: Inhibition of Muscarinic M5 at 10 µM in the Eurofins-Panlabs radioligand binding assay (Eurofins_assay_253010). Further details: ligand concentration 0.8 nM. The settings on record: Compound concentration 10.0 uM.

Assay [18] concerns the target Cathepsin G (Homo sapiens) (UniProt P08311). Put plainly: Inhibition of Peptidase, CTSG (Cathepsin G) at 10 µM in the Eurofins-Panlabs enzyme assay (Eurofins_assay_112510). On the set-up: substrate with concentration. The settings on record: Compound concentration 10.0 uM.
Assay [19] has as its target Calcium/calmodulin-dependent protein kinase type II subunit alpha (Homo sapiens) (UniProt Q9UQM7). The experiment in a line: Inhibition of CaMKIIalpha(h) at 10.0 µM in the Eurofins Kinase panel. The settings on record: Compound concentration 10.0 uM.
The target in assay [20] is Serine/threonine-protein kinase tousled-like 1 (Homo sapiens) (UniProt Q9UKI8). The experiment in a line: Inhibition of TLK1(h) at 10.0 µM in the Eurofins Kinase panel. The settings on record: Compound concentration 10.0 uM.
In assay [21] the target is T2, Alpha-1A adrenergic receptor (Homo sapiens) (UniProt P35348).
T2 sequence (whole entry): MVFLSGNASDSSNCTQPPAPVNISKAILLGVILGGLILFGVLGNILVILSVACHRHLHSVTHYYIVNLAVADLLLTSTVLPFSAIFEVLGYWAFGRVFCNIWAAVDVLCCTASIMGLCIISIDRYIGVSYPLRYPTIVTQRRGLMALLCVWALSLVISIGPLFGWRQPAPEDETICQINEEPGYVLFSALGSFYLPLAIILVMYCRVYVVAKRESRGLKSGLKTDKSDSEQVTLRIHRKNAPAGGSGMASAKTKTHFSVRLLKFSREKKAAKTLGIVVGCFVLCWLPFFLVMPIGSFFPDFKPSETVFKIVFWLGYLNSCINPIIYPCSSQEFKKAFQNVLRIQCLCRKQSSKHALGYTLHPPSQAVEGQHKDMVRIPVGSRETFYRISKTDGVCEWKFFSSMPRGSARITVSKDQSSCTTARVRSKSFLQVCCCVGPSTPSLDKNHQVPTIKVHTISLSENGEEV
The settings on record: Compound concentration 10.0 uM.

The target of assay [22] is Cannabinoid receptor 1 (Homo sapiens) (UniProt P21554). The settings on record: Compound concentration 10.0 uM.

Transient receptor potential cation channel subfamily M member 7 (Homo sapiens), sequence (Q96QT4 whole entry): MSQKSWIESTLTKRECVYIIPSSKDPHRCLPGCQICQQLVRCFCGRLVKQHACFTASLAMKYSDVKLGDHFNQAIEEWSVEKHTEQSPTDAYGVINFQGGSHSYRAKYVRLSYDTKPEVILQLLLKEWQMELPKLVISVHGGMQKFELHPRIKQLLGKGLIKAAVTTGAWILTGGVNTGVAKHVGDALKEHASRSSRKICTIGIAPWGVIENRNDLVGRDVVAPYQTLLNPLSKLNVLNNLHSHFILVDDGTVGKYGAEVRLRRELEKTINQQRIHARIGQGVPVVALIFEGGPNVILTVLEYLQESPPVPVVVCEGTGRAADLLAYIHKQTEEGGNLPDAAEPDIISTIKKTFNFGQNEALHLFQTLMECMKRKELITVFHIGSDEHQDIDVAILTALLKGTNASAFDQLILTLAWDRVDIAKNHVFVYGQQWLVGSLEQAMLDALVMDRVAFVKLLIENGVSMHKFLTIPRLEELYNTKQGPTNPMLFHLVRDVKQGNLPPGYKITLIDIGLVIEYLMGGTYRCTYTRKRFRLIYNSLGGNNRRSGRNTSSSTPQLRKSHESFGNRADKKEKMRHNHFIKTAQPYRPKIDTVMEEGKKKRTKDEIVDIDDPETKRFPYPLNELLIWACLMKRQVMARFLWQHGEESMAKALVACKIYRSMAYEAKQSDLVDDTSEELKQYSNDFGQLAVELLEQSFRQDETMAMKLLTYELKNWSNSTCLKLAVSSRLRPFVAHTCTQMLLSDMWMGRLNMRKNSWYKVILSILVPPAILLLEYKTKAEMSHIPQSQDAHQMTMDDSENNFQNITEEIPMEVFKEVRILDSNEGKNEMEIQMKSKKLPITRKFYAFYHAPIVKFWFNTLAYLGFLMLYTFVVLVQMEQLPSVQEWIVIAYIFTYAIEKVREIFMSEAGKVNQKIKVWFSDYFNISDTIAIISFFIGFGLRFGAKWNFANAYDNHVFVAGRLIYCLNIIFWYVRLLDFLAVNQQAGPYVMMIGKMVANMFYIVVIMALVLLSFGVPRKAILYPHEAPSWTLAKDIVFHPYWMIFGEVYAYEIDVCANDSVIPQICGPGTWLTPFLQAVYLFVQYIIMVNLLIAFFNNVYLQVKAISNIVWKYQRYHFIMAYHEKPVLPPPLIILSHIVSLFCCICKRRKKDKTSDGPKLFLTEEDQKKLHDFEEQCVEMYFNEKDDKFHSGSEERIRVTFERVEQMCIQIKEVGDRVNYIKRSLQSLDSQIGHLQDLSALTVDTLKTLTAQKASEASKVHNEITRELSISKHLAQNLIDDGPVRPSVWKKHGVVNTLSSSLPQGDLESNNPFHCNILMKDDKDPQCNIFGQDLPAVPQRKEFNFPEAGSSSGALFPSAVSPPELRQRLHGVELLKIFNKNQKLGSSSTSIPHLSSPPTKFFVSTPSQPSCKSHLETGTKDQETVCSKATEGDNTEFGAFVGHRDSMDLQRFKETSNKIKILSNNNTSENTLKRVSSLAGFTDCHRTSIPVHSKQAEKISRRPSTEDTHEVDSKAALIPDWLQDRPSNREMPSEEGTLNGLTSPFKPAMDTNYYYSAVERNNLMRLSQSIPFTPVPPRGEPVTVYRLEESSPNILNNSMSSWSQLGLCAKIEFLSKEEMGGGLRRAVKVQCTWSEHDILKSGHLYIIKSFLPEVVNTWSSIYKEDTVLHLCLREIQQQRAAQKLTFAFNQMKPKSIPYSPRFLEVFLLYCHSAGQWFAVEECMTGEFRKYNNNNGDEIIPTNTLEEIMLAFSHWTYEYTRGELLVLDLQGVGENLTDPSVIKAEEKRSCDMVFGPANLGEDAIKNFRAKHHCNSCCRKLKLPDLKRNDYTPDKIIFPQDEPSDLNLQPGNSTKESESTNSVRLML
Serine/threonine-protein kinase ICK (Homo sapiens), sequence (Q9UPZ9 whole entry): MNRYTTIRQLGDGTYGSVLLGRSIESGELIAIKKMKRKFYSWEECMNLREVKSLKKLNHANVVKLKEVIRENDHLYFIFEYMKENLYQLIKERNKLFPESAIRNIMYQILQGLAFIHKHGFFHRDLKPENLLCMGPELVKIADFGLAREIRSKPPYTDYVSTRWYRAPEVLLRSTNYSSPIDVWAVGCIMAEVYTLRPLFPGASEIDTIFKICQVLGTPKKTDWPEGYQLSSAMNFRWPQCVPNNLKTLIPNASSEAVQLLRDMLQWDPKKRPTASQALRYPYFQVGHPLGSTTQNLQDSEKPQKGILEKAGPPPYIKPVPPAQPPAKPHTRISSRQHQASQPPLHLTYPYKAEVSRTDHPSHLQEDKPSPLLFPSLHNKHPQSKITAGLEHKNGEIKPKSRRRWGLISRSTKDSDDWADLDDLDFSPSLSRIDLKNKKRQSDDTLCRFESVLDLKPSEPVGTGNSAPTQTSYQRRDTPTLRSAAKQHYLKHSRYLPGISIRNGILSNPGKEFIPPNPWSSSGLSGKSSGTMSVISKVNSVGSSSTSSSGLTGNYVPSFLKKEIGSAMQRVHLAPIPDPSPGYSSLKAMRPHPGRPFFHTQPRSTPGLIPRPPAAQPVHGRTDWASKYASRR
Matrix metalloproteinase-9 (Homo sapiens), sequence (P14780 whole entry): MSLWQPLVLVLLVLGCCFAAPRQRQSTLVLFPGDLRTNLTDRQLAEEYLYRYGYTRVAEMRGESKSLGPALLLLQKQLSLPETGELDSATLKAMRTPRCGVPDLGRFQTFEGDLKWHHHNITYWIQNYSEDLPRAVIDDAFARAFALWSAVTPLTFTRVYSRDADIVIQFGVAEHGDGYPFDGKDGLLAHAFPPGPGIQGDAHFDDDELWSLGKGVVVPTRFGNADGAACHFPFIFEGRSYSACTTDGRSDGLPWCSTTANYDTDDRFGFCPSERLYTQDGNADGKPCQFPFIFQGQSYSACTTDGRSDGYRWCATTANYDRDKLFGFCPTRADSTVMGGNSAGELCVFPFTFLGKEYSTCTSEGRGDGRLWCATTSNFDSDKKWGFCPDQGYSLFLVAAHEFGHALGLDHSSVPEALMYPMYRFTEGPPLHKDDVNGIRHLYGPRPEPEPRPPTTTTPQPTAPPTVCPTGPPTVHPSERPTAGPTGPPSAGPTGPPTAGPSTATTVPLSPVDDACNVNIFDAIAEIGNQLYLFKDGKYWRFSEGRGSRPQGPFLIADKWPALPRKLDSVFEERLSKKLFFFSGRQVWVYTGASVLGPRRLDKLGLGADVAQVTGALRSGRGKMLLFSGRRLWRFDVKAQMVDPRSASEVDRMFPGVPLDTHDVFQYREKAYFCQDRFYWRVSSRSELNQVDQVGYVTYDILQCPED
5'-AMP-activated protein kinase catalytic subunit alpha-2 (Homo sapiens), sequence (P54646 whole entry, looked up): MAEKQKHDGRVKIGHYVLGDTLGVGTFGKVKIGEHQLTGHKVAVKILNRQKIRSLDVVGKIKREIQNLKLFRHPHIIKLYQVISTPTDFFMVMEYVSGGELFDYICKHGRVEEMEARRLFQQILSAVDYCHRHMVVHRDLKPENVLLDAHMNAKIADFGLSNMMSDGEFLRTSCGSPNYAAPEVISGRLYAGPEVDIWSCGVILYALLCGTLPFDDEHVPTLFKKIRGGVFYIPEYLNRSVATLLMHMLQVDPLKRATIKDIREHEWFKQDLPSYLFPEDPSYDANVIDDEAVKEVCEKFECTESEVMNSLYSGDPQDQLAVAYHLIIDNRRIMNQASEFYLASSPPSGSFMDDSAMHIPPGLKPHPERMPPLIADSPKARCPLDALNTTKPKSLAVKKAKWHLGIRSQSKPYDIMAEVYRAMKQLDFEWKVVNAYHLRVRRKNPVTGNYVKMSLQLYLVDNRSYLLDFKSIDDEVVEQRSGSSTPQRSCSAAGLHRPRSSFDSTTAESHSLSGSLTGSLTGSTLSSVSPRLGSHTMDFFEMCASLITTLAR
Melanocortin receptor 5 (Homo sapiens), sequence (P33032 whole entry): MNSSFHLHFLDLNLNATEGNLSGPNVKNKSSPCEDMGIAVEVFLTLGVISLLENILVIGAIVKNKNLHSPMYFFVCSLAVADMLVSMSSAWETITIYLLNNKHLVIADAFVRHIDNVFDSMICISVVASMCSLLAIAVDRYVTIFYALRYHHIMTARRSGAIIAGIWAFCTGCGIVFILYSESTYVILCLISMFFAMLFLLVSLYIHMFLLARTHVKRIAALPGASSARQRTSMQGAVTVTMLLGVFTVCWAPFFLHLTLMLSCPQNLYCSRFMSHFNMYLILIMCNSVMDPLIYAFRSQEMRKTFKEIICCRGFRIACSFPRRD
Melanocortin receptor 4 (Homo sapiens), sequence (P32245 whole entry): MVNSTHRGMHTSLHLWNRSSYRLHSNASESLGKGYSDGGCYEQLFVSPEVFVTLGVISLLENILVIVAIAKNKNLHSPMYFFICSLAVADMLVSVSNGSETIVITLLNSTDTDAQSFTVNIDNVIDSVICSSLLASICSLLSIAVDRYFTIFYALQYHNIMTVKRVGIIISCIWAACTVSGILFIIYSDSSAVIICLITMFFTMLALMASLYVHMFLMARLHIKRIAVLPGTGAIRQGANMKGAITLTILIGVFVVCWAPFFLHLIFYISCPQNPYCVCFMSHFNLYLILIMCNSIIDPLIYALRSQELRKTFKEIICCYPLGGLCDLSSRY
Cathepsin G (Homo sapiens), sequence (P08311 whole entry): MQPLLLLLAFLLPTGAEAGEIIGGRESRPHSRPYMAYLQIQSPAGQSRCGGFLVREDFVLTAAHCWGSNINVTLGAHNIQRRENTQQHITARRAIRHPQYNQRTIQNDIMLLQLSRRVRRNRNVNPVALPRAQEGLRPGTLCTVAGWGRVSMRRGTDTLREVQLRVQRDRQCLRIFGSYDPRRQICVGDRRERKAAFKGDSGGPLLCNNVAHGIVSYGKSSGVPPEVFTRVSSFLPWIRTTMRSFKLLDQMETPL
B1 bradykinin receptor (Homo sapiens), sequence (P46663 whole entry): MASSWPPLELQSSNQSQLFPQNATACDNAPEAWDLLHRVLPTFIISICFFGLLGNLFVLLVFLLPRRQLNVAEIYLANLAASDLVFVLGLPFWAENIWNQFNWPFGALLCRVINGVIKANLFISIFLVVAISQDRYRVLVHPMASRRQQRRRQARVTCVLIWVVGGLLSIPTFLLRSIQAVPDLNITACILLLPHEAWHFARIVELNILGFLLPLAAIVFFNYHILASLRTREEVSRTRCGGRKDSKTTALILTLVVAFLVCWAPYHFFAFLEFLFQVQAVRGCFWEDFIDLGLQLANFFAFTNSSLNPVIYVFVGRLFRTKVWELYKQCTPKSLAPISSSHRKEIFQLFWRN

Turning to `O=c1n(Cc2cncn2-c2cccc(Cl)c2)nc(-c2ccc(Cl)cc2)n1C[C@H](O)C(F)(F)F`, the inhibition was 29% on Vasopressin V2 receptor; -2.83% in assay [1]; -0.03% in assay [2]; -9.83% in assay [3]; -2.69% in assay [4]; -3.84% in assay [5]. Further, the figures for the inhibition in assay [6] and in [7] were -3.28% and 10%, respectively.
In the case of `C[C@H](O)c1nc(Cn2nc(-c3ccc(Cl)cc3)n(C[C@H](O)C(F)(F)F)c2=O)nn1-c1cccc(Cl)c1` [PECAVAPTAN], the inhibition in assay [8] is 0%; in assay [9] it was -2%; in the assay filed under Rattus norvegicus, 21%; in [10] it was -6%; in assay [11], 3%; in assay [12], -2%. For the same compound, the inhibition in [13] is -6%; in assay [14] it was 15%; in assay [15] it was 4%; in [16] it was 13%; in [17], 6%; in assay [18] it was 0%. The inhibition in assay [19] is -6.92%; in assay [20] it was -3.06%; in [21] it was -2.04%; in [22] it was 34%.

For orientation: inhibition means the change of the read-out against control, counted positive when it falls.
